# Results as given in patent US12441739B2, “Glucagon receptor antagonist and use thereof” (LANZHOU UNIVERSITY, priority 2021, dated 2025).
# Where “and” joins values, the source holds several entries; their conditions need not be identical. Equal values may be shown once.
# Molecular target: T1, human glucagon receptor (hGCGR) (Homo sapiens, UniProt P47871)
# T1 construct: host or cells: HEK293
# Assay: HTRF second messenger cAMP response experiment (called cell viability test) in HEK293 cells with glucagon peptide segment
# Format: cell-based
# Conditions: for Inhibition percentage: HEK293 cells, glucagon peptide segment, HTRF cAMP, triplicate columns
# Experimental: In order to determine the antagonistic activity of the compound A on the glucagon receptor in the above embodiments, a cell viability test is carried out. The specific implementation is as follows.
# A known human glucagon receptor (hGCGR) antagonist drug is selected as a positive control, and the compound A in the above embodiments, a glucagon peptide segment (that is, human full-length glucagon), and human embryonic kidney cells containing target receptor molecules are mixed. The glucagon peptide segment binds to hGCGR to activate the hGCGR signaling pathway and release the second messenger cAMP. The compound A acts as an antagonist to inhibit the activity of hGCGR.
# In an exemplary embodiment, a known hGCGR antagonist drug (L-168,049) is selected as a positive control. […] In addition, in view of the human glucagon receptor on the cell membrane of human embryonic kidney cells HEK293, HEK293 is used to test the drug activity of the human glucagon antagonist. In this embodiment, different concentrations of compound A of the present disclosure and the positive control are respectively mixed with glucagon peptide segments and HEK293 cells, the second messenger cAMP is detected through homogeneous time resolved fluorescence (HTRF), and a half maximal inhibitory concentration value of each compound is calculated according to the intensity value of HTRF.
# (§1) In an exemplary embodiment, the activity of the compound A is tested using the HTRF technique. Specifically, after activation of the glucagon receptor by the glucagon peptide segment, the second messenger cAMP is released from the glucagon receptor cells, the second messenger cAMP may be detected by HTRF, and the half maximal inhibitory concentration (IC50) of the tested compound may be calculated according to the fluorescence intensity.
# In an exemplary embodiment, 11 identical concentration gradients are set for the compounds A1 and A2 respectively. The activities of the compounds A1 and A2 are determined by the HTRF second messenger cAMP response experiment in triplicate.
# Step S910. Select an antagonist drug of hGCGR as a positive control, and mix each target drug small molecule, a glucagon peptide segment, and human embryonic kidney cells containing the target receptor molecule. The glucagon peptide segment binds to hGCGR to activate the hGCGR signaling pathway and release the second messenger cAMP. The target drug molecule acts as an antagonist to inhibit the activity of hGCGR.
# In an exemplary embodiment, an antagonist drug (such as L-168,049) of hGCGR is selected as a positive control. In addition, in view of the human glucagon receptor on the cell membrane of human embryonic kidney cells (such as HEK293), HEK293 may be used to test the drug activity of the human glucagon antagonist. The target drug small molecule, the glucagon peptide segment, and the HEK293 cells containing the target receptor molecule are mixed. The glucagon peptide segment is used to bind to hGCGR to activate the hGCGR signaling pathway and promote the release of the second messenger cAMP. The target drug molecule acts as an antagonist to inhibit the activity of hGCGR.
# Step S920. Detect the second messenger cAMP through HTRF, and determine a half maximal inhibitory concentration value of each target drug small molecule according to an intensity value of HTRF.
# as §1, with “each target drug small molecule (such as 30 target drug small molecules shown in Table 2)” for “the compound A”, “tested by” for “tested”, “drug molecule” for “tested compound”, “intensity. […]” for “intensity.”
# [1] = concentration gradient LogM −8.81697
# [2] = concentration gradient LogM −6.908485
# T1 sequence (P47871 26-477): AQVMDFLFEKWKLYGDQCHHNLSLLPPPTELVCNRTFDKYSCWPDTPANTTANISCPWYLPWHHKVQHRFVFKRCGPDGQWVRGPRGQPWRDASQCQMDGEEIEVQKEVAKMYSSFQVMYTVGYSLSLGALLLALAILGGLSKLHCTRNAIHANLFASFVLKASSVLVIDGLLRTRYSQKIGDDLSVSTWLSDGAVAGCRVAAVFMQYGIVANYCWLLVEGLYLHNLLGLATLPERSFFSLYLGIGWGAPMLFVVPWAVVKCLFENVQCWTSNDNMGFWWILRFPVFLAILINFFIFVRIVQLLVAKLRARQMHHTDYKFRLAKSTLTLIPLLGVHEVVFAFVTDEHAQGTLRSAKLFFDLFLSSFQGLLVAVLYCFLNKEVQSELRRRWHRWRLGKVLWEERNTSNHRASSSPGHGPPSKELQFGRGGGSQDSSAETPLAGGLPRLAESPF
Compound,IC50 [µM],further results
CCC(=O)NC(=S)Nc1ccc(NC(=S)NC(=O)c2cccc(OC)c2)cc1 [Compound C9],> 10,Inhibition percentage (concentration gradient LogM −7.385606): 3.734% and −2.05% and −2.9843%; Inhibition percentage [1]: 8.521% and 5.537% and 14.34%
O=C(CNC(=O)NCCCOC1CCCCC1)Nc1ccc(F)c(F)c1 [Compound C19],> 10,
CS(=O)(=O)NCCOc1ccc(S(=O)(=O)NCCOc2ccccc2)cc1 [Compound C28],> 10,
O=C(COC(=O)CCNC(=O)c1ccsc1)NC(=O)NCc1cccs1 [Compound C20],> 10,
COc1cc(/C=N/NC(=O)CN2C(=O)N[C@H]3NC(=O)N[C@@H]32)cc(OC)c1O [Compound C12],> 10,
Cn1c(CNC(=O)c2cccs2)nnc1SCC(=O)Nc1ccc(Cl)cc1 [Compound C29],> 10,
COc1ccc(C(=O)NC(=S)Nc2ccc(NC(=S)NC(C)=O)cc2)cc1Cl [Compound C3],> 10,Inhibition percentage [2]: 5.05% and 4.705% and 12.02%
Cc1ccc(-c2csc(NC(=O)c3ccc4c(c3)NC(=O)CS4)n2)c(C)c1 [Compound C23],,Inhibition percentage (concentration gradient LogM −5): 75.66% and 75.14% and 57.58%
O=C(CSc1nc2ccccc2[nH]1)NC(=O)Nc1ccc2c(c1)OCO2 [Compound C21],> 10,
O=C(NNC(=S)Nc1ccccc1)[C@H](O)[C@@H](O)C(=O)NNC(=S)Nc1ccccc1 [Compound C7],> 10,Inhibition percentage (concentration gradient LogM −7.862728): −25.3779% and −25.5195% and −24.1306%; Inhibition percentage (concentration gradient LogM −9.294091): −8.847% and −15.2446% and −18.5536%
CCC(=O)NC(=S)Nc1ccc(NC(=S)NC(=O)c2ccccc2OC)cc1 [Compound C8],> 10,
O=C(CCNC(=O)c1ccccc1)NCc1cccc(NC(=O)C2CC2)c1 [Compound C16],> 10,Inhibition percentage [2]: −5.221% and −7.477% and −6.358%; Inhibition percentage [1]: −7.7562% and −6.836% and −15.6271%
